Assays:
[1] = biological target: T1, HIV integrase (recombinant integrase) (Human immunodeficiency virus type 1 group M subtype B, UniProt P04585); experiment: HIV integrase assay: strand transfer catalyzed by recombinant integrase; assay type: biochemical; conditions: per WO 02/30930, read-out: IC50, inhibition of strand transfer activity of integrase
T1 construct: Assays for the strand transfer activity of integrase were conducted in accordance with WO 02/30930 for recombinant integrase
Experimental: Assays for the strand transfer activity of integrase were conducted in accordance with WO 02/30930 for recombinant integrase.
Further description on conducting the assay using preassembled complexes is found in Wolfe, A. L. et al., J. Virol. 1996, 70: 1424-1432, Hazuda et al., J. Virol. 1997, 71: 7005-7011; Hazuda et al., Drug Design and Discovery 1997, 15: 17-24; and Hazuda et al., Science 2000, 287: 646-650.

HIV = experiment: Assay for inhibition of HIV replication (acute HIV infection of T-lymphoid cells); assay type: cell-based; conditions: Human immunodeficiency virus 1
Experimental: Assays for the inhibition of acute HIV infection of T-lymphoid cells were conducted in accordance with Vacca, J. P. et al., Proc. Natl. Acad. Sci. USA 1994, 91: 4096.

Compound | IC50 [1] [µM] | IC95 (HIV) [µM]
O=C1C2=C(O)C(=O)N(C3CC3)CC2CCN1Cc1ccc(F)c(Cl)c1 (racemic) [Example 18, 2-(3-Chloro-4-fluorobenzyl)-8-hydroxy-6-cyclopropyl-2,3,4,4a,5,6-hexahydro-2,6-naphthyridine-1,7-dione] | ≤ 1 | ≤ 10
CC[C@@H]1[C@@H]2CCN(Cc3ccc(F)cc3)C(=O)C2=C(O)C(=O)N1C (relative stereo) [Example 6, (Cis-4a,5)-5-Ethyl-2-(4-fluorobenzyl)-8-hydroxy-6-methyl-2,3,4,4a,5,6-hexahydro-2,6-naphthyridine-1,7-dione] | ≤ 1 | ≤ 10
CC[C@@H]1[C@H]2CCN(Cc3ccc(F)cc3)C(=O)C2=C(O)C(=O)N1C (relative stereo) [Example 7, (Trans-4a,5)-5-Ethyl-2-(4-fluorobenzyl)-8-hydroxy-6-methyl-2,3,4,4a,5,6-hexahydro-2,6-naphthyridine-1,7-dione] | ≤ 1 | ≤ 10
CN1C(=O)C(O)=C2C(=O)N(Cc3ccc(F)cc3)CCC2C1C(=O)OC(C)(C)C (single isomer, unassigned) [Example 4, 5-(tert-Butyloxycarbonyl)-2-(4-fluorobenzyl)-8-hydroxy-6-methyl-2,3,4,4a,5,6-hexahydro-2,6-naphthyridine-1,7-dione] | ≤ 1 | ≤ 10
CN1C(=O)C(O)=C2C(=O)N(Cc3ccc(F)cc3)CCC2C1c1ncccn1 (single isomer, unassigned) [first eluting enantiomer of Example 17, 5-(Pyrimidin-2-yl)-2-(4-fluorobenzyl)-8-hydroxy-6-methyl-2,3,4,4a,5,6-hexahydro-2,6-naphthyridine-1,7-dione] | ≤ 1 | ≤ 10
CN1CC2CCN(Cc3ccc(F)cc3)C(=O)C2=C(O)C1=O (stereo not drawn) [Example 1, 2-(4-Fluorobenzyl)-8-hydroxy-6-methyl-2,3,4,4a,5,6-hexahydro-2,6-naphthyridine-1,7-dione] | ≤ 1 | ≤ 10
CN1C(=O)C(O)=C2C(=O)N(Cc3ccc(F)cc3)CCC2C1(C)C (stereo not drawn) [Example 2, 2-(4-Fluorobenzyl)-8-hydroxy-5,5,6-trimethyl-2,3,4,4a,5,6-hexahydro-2,6-naphthyridine-1,7-dione] | ≤ 1 | ≤ 10
CN1CC2(c3ccccc3)CCN(Cc3ccc(F)cc3)C(=O)C2=C(O)C1=O (stereo not drawn) [Example 3, 2-(4-Fluorobenzyl)-8-hydroxy-6-methyl-4-a-phenyl-2,3,4,4a,5,6-hexahydro-2,6-naphthyridine-1,7-dione] | ≤ 1 | ≤ 10
CCC1NC(=O)C(O)=C2C(=O)N(Cc3ccc(F)cc3)CCC21 (stereo not drawn) [Example 5] | ≤ 1 | ≤ 10
CC1(C)C2CCN(Cc3ccc(F)cc3)C(=O)C2=C(O)C(=O)N1CC1CC1 (stereo not drawn) [Example 8, 6-(Cyclopropylmethyl)-2-(4-fluorobenzyl)-8-hydroxy-5,5-dimethyl-2,3,4,4a,5,6-hexahydro-2,6-naphthyridine-1,7-dione] | ≤ 1 | ≤ 10
CN(C)C(=O)C1C2CCN(Cc3ccc(F)cc3)C(=O)C2=C(O)C(=O)N1C (stereo not drawn) [Example 9, 5-(Dimethylaminocarbonyl)-2-(4-fluorobenzyl)-8-hydroxy-6-methyl-2,3,4,4a,5,6-hexahydro-2,6-naphthyridine-1,7-dione] | ≤ 1 | ≤ 10
CN1C(=O)C(O)=C2C(=O)N(Cc3ccc(F)c(Cl)c3)CCC2C1(C)C (stereo not drawn) [Example 10] | ≤ 1 | ≤ 10
CN1C(=O)C(O)=C2C(=O)N(Cc3ccc(F)cc3)CCC2C12CCCC2 (stereo not drawn) [Example 11] | ≤ 1 | ≤ 10
CN1C(=O)C(O)=C2C(=O)N(Cc3ccc(F)c(F)c3)CCC2C1(C)C (stereo not drawn) [Example 12] | ≤ 1 | ≤ 10
CN1C(=O)C(O)=C2C(=O)N(Cc3ccc(F)cc3)CCC2C12CCC2 (stereo not drawn) [Example 13] | ≤ 1 | ≤ 10
CC(C)CNC(=O)C1C2CCN(Cc3ccc(F)cc3)C(=O)C2=C(O)C(=O)N1C (stereo not drawn) [Example 14] | ≤ 1 | ≤ 10
CN1C(=O)C(O)=C2C(=O)N(Cc3ccc(F)cc3)CCC2C1C(=O)NC(C)(C)C (stereo not drawn) [Example 15] | ≤ 1 | ≤ 10
CN1C(=O)C(O)=C2C(=O)N(Cc3ccc(F)cc3)CCC2C1C(=O)NCc1ccccn1 (stereo not drawn) [Example 16] | ≤ 1 | ≤ 10

Reference: patent US7619086B2 (Merck & Co., Inc., priority 2004, dated 2009)
